Data: ChEMBL document CHEMBL5030556, “Selection and Identification of Novel Antibacterial Agents against Planktonic Growth and Biofilm Formation of Enterococcus faecalis” (J Med Chem, 2021)
Active and inactive are the calls of the source. The rule behind the calls is not given here.

Assays:
Enterococcus faecalis [1] = assay: Antimicrobial activity against Enterococcus faecalis OG1RF assessed as reduction in visible bacterial growth incubated for 16 to 20 hrs by microdilution broth assay; format: functional; conditions: time 16-20 hrs
Enterococcus faecalis [2] = assay: Bactericidal activity against Enterococcus faecalis OG1RF assessed as reduction in bacterial colonies incubated for 16 to 20 hrs by microdilution broth analysis; format: functional; conditions: time 16-20 hrs, read-out: MBC99.9
[3] = Inhibition of Enterococcus faecalis OG1RF YycG autophosphorylation by Kinase-Glo luminescent kinase assay
[4] = Cytotoxicity against african green monkey Vero cells assessed as inhibition of cell growth by MTT assay; format: cell-based; conditions: chlorocebus sabaeus
[5] = Hemolytic activity against human erythrocytes at 50 uM incubated for 1 hr at 570 nm by spectrophotometry; format: ADME, tissue-based, Erythrocyte; conditions: read-out: Activity
[6] = Hemolytic activity against human erythrocytes at 200 uM incubated for 1 hr at 570 nm by spectrophotometry; format: ADME, tissue-based, Erythrocyte; conditions: read-out: Activity
Enterococcus faecalis [7] = assay: Antibacterial activity against Enterococcus faecalis ATCC 29212 assessed as reduction in visible bacterial growth incubated for 16 to 20 hrs by microdilution broth assay; format: functional; conditions: time 16-20 hrs
Enterococcus faecalis [8] = assay: Antibacterial activity against Enterococcus faecalis OG1RF assessed as reduction in visible bacterial growth incubated for 16 to 20 hrs by microdilution broth assay; format: functional; conditions: time 16-20 hrs
Enterococcus faecalis [9] = assay: Antibacterial activity against Enterococcus faecalis FB-1 assessed as reduction in visible bacterial growth incubated for 16 to 20 hrs by microdilution broth assay; format: functional; conditions: time 16-20 hrs
[10] = test system: Staphylococcus epidermidis; assay: Antibacterial activity against Staphylococcus epidermidis ATCC 35984 assessed as reduction in visible bacterial growth incubated for 16 to 20 hrs by microdilution broth assay; format: functional; conditions: time 16-20 hrs
[11] = test system: Staphylococcus epidermidis; assay: Antibacterial activity against Staphylococcus epidermidis ATCC 12228 assessed as reduction in visible bacterial growth incubated for 16 to 20 hrs by microdilution broth assay; format: functional; conditions: time 16-20 hrs
Staphylococcus aureus [12] = assay: Antibacterial activity against Staphylococcus aureus ATCC 29213 assessed as reduction in visible bacterial growth incubated for 16 to 20 hrs by microdilution broth assay; format: functional; conditions: time 16-20 hrs
Staphylococcus aureus [13] = assay: Antibacterial activity against Staphylococcus aureus ATCC 35556 assessed as reduction in visible bacterial growth incubated for 16 to 20 hrs by microdilution broth assay; format: functional; conditions: time 16-20 hrs
Enterococcus faecium [14] = assay: Antibacterial activity against Enterococcus faecium EF16M64 assessed as reduction in visible bacterial growth incubated for 16 to 20 hrs by microdilution broth assay; format: functional; conditions: time 16-20 hrs
Streptococcus agalactiae [15] = assay: Antibacterial activity against Streptococcus agalactiae NSGC64 assessed as reduction in visible bacterial growth incubated for 16 to 20 hrs by microdilution broth assay; format: functional; conditions: time 16-20 hrs
Escherichia coli = assay: Antibacterial activity against Escherichia coli […] assessed as reduction in visible bacterial growth incubated for 16 to 20 hrs by microdilution broth assay; format: functional; conditions: time 16-20 hrs
Enterococcus faecalis [16] = assay: Inhibition of biofilm formation of Enterococcus faecalis FB-1 assessed as inhibitory rate of formation at 100 uM for 24 hrs measured at 570 nm by crystal violet staining based spectrophotometry; format: functional
Enterococcus faecalis [17] = assay: Bacteriostatic activity against planktonic cells of Enterococcus faecalis OG1RF measured by microdilution broth assay; format: functional, organism-based
Enterococcus faecalis [18] = assay: Antibiofilm activity against Enterococcus faecalis FB-1 assessed as inhibition of biofilm maturation measured after 24 hr; format: functional, organism-based
Enterococcus faecalis [19] = assay: Antibiofilm activity against Enterococcus faecalis FB-1 assessed as inhibition of biofilm infection at 25 uM by fluid shear system; format: functional, organism-based
Enterococcus faecalis [20] = assay: Antibiofilm activity against Enterococcus faecalis FB-1 assessed as eradication of mature biofilm by semiquantitative microtiter assay; format: functional, organism-based
Enterococcus faecalis [21] = assay: Antibiofilm activity against Enterococcus faecalis FB-1 assessed as inhibition of biofilm maturation at 1.56 uM measured after 24 hr; format: functional, organism-based
Enterococcus faecalis [22] = assay: Binding affinity to Enterococcus faecalis FB-1 YycG assessed as slow association and slow dissociation measured by Octet RED96 response assay
[23] = test system: Staphylococcus epidermidis; assay: Antibiofilm activity against Staphylococcus epidermidis assessed as inhibition of biofilm formation at sub-MIC concentration; format: functional, organism-based
Staphylococcus aureus [24] = assay: Antibiofilm activity against Staphylococcus aureus assessed as inhibition of biofilm formation at sub-MIC concentration; format: functional, organism-based
Enterococcus faecium [25] = assay: Antibiofilm activity against Enterococcus faecium assessed as inhibition of biofilm formation at sub-MIC concentration; format: functional, organism-based
Streptococcus agalactiae [26] = assay: Antibiofilm activity against Streptococcus agalactiae assessed as inhibition of biofilm formation at sub-MIC concentration; format: functional, organism-based
Enterococcus faecalis [27] = assay: Antibiofilm activity against Enterococcus faecalis FB-1 assessed as eradication of mature biofilm measured after 48 hrs by semiquantitative microtiter assay; format: functional
Enterococcus faecalis [28] = assay: Antibiofilm activity against Enterococcus faecalis FB-1 assessed as eradication of mature biofilm measured after 72 hrs by semiquantitative microtiter assay; format: functional
Enterococcus faecalis [29] = assay: Antibiofilm activity against Enterococcus faecalis assessed as reduction in amount of viable biofilm-embedded bacterial cells at 50 uM measured by YTO 9/PI staining followed by confocal laser scanning microscopy; format: functional
Enterococcus faecalis [30] = assay: Antibiofilm activity against Enterococcus faecalis assessed as inhibition of biofilm at 1/2 times of MIC incubated for 24 hrs; format: functional; parameters: scale not given: the % may be the effect or the level left
Enterococcus faecalis [31] = assay: Effect on initial adhesion capacity of Enterococcus faecalis assessed as attached cells at 25 uM for 6 hrs by crystal violet staining based microscopic assay (reference value: 0.412); format: functional
Enterococcus faecalis [32] = assay: Antibiofilm activity against Enterococcus faecalis assessed as reduction in amount of viable biofilm-embedded bacterial cells at 50 uM in presence of daptomycin measured by YTO 9/PI staining followed by confocal laser scanning microscopy; format: functional
Enterococcus faecalis [33] = assay: Antibiofilm activity against Enterococcus faecalis assessed as reduction in amount of viable biofilm-embedded bacterial cells at 50 uM in presence of ampicillin measured by YTO 9/PI staining followed by confocal laser scanning microscopy; format: functional

| Structure (SMILES) | MIC (Enterococcus faecalis [1]) | MBC (Enterococcus faecalis [2]) | IC50 [3] | CC50 [4] | hemolysis at 1 h, 50 µM [5] | hemolysis at 1 h, 200 µM [6] | MIC (Enterococcus faecalis [7]) | MIC (Enterococcus faecalis [8]) | MIC (Enterococcus faecalis [9]) | MIC [10] | MIC [11] | MIC (Staphylococcus aureus [12]) | MIC (Staphylococcus aureus [13]) | MIC (Enterococcus faecium [14]) | MIC (Streptococcus agalactiae [15]) | MIC (Escherichia coli) | inhibition at 100 µM (Enterococcus faecalis [16]) | Activity (Enterococcus faecalis [17]) | Activity (Enterococcus faecalis [18]) | Activity (Enterococcus faecalis [20]) | further results |
| --- | --- | --- | --- | --- | --- | --- | --- | --- | --- | --- | --- | --- | --- | --- | --- | --- | --- | --- | --- | --- | --- |
| O=C(O)COc1ccc(/C=C2/SC(=O)N(Cc3ccc(F)cc3)C2=O)cc1Br | > 200 µM | > 200 µM | 27.4 µM | > 200 µM | 8.36% | 22.7% | > 200 µM | > 200 µM | > 200 µM | > 200 µM | > 200 µM | > 200 µM | > 200 µM | > 200 µM | > 200 µM | > 200 µM | 83.5% | inactive | Dose-Dependent Effect | inactive | Activity (Enterococcus faecalis [19]): Active |
| O=C(C1=C(O)C(=O)N(c2nnc(SCc3ccc(F)cc3)s2)C1c1cccc(O)c1)c1cc2ccccc2o1 (stereo not given) | > 200 µM | > 200 µM | > 200 µM | > 200 µM | 1.94% | 3.83% |  |  |  |  |  |  |  |  |  |  | 75.5% | inactive | Dose-Dependent Effect | inactive | Activity (Enterococcus faecalis [21]): Active |
| COc1cc(C2C(C(=O)c3cc4ccccc4o3)=C(O)C(=O)N2c2nnc(SCc3ccccc3Cl)s2)ccc1O (stereo not given) | > 200 µM | > 200 µM | 6.1 µM | > 200 µM | 2.77% | 6.14% | > 200 µM | > 200 µM | > 200 µM | > 200 µM | > 200 µM | > 200 µM | > 200 µM | > 200 µM | > 200 µM | > 200 µM | 92.7% | inactive | Dose-Dependent Effect |  | Activity (Enterococcus faecalis [22]): Active; Activity (Enterococcus faecalis [21]): Active; Activity [23]: Active; Activity (Staphylococcus aureus [24]): Active; Activity (Enterococcus faecium [25]): Active; Activity (Streptococcus agalactiae [26]): Active; Activity (Enterococcus faecalis [19]): Active; Activity (Enterococcus faecalis [27]): 51%; Activity (Enterococcus faecalis [28]): 66%; Activity (Enterococcus faecalis [29]): 52.85%; Activity (Enterococcus faecalis [30]): 74.8%; OD (Enterococcus faecalis [31]): 0.143; Activity (Enterococcus faecalis [32]): 47.16%; Activity (Enterococcus faecalis [33]): 72.71% |
| O=C(C1=C(O)C(=O)N(c2nnc(SCc3ccccc3)s2)C1c1ccccc1F)c1cc2ccccc2o1 (stereo not given) | > 200 µM | > 200 µM | > 200 µM | > 200 µM | 4.44% | 8.31% |  |  |  |  |  |  |  |  |  |  | 73.8% | inactive | Dose-Dependent Effect | inactive |  |
| O=C(C1=C(O)C(=O)N(c2nnc(SCc3ccc(Cl)cc3)s2)C1c1cccc(O)c1)c1cc2ccccc2o1 (stereo not given) | > 200 µM | > 200 µM | 8.3 µM | > 200 µM | 6.26% | 7.81% |  |  |  |  |  |  |  |  |  |  | 72% | inactive | Dose-Dependent Effect |  | Activity (Enterococcus faecalis [29]): 27.79% |
